According to patent publication US12629419B2, “Prevention or mitigation of T-cell engaging agent-related adverse effects” (Hoffmann-La Roche Inc., priority 2020, dated 2026):
“Also recorded” adds a separate entry of the source.

Tests used:
[1] = test system: CEA-TCB-induced cytokine release; assay: CEA-TCB-induced cytokine release (Luminex, supernatants); details: 10 nM CEA-TCB
Method: The levels of cytokines were measured by Luminex in the supernatants of the assay to determine the impact of the different compounds on CEA-TCB-induced cytokine release.

[2] = test system: CD20-TCB-induced cytokine release; assay: CD20-TCB killing assay, inhibitors added after 18 hours: cytokine release from pre-activated effector cells; type: cell-based; details: 100 nM added at 18 h
Method: FIG. 34. In vitro killing assay set-up. Cell Trace™ Violet (CTV) labelled WSU DLCL2 tumor cells were co-cultured together with PBMCs [E:T=200′000:20′000] and stimulated with CD20-TCB for 18 h.
In this assay, CTV labelled WSU DLCL2 tumors cells were co-cultured with PBMCs in the presence of escalating doses of CD20-TCB for 18 hours.

[3] = test system: CD19+ B cells; assay: CD20-TCB-induced B cell depletion in non-tumor bearing humanized NSG mice; type: in vivo; details: 48 and 72 hours; 0.15 mg/kg CD20-TCB; p.o. 2, 5, 10 mg/kg sirolimus, 10 mg/kg everolimus, 10 mg/kg temsirolimus, ruxolitinib
Method: FIG. 95. In vivo experiment timelines and dosing schedule.
FIG. 96. […] The proportion of CD19+ B cells among human CD45+(huCD45) cells was measured by flow cytometry in the blood collected 48 hrs and 72 hrs post-treatment with CD20-TCB. Mean of n=4 mice or n=3 mice (everolimus group)+/−SEM. The statistical comparison to the vehicle group is summarized table (C) where the p values were calculated by Kruskal-Wallis test.
Different doses of mTOR, JAK and Src kinase inhibitors were tested to determine the optimal dose that reduces CD20-TCB-induced cytokine release while minimally interfering with B cell depletion. […] The doses of 30 and 60 mg/kg were tested for ruxolitinib and the doses of 10 and 50 mg/kg were tested for dasatinib. To reproduce the clinical route of administration, the different kinase inhibitors were given orally (p.o.) once or twice per day as depicted in FIG. 95. Mice were bled 4 hours and 24 hours after the treatment with CD20-TCB (FIG. 95) to collect serum for cytokine level measurements by Luminex. Additionally, blood was collected 48 hours and 72 hours (termination) post treatment with CD20-TCB to measure the percentage of CD19+ B cells among human CD45+ cells by flow cytometry (FIG. 95).

[4] = test system: CD20-TCB-induced cytokine release; assay: CD20-TCB-induced cytokine release (Luminex); type: cell-based; details: 24 h
Method: A similar experiment was conducted with another TCB.
(§1) A similar experiment was conducted with CD20-TCB.
(§2) A similar experiment was conducted with CD20-TCB. WSU DLCL2 cells were co-cultured together with PBMCs in the presence of 1 nM CD20-TCB, and escalating everolimus doses ranging from 0 nM to 1000 nM (FIG. 13).
(§3) A similar experiment was conducted with CD20-TCB. WSU DLCL2 cells were co-cultured together with PBMCs in the presence of 1 nM CD20-TCB, and escalating ruxolitinib doses ranging from 0 nM to 1000 nM (FIG. 13).
(§4) A similar experiment was conducted with another TCB. […] The killing of B cells was measured as a readout for the impact of the various compounds on TCB efficacy at 24 h (FIGS. 27 and 28). […] Lastly, the levels of cytokines (TNF-α, IFN-γ, IL-2, IL-6, IL-4, IL-10, GM-CSF and IL-1β) were analyzed by Luminex at assay endpoint to assess the impact of the different treatments on TCB-induced cytokine release (FIGS. 32 and 33).
(§5) At 24 hours, tumor cell killing was measured by flow cytometry by exclusion of dead CTV cells. The supernatants were collected and cytokines were measured by Luminex.

[5] = test system: CD4+ and CD8+ T cells; assay: T cell activation (CD25, CD69) in CD20-TCB killing assay; type: cell-based; details: 1 nM CD20-TCB; 24 h; inhibitor 0 nM to 1000 nM
Method: A similar experiment was conducted with another TCB. WSU DLCL2 cells were co-cultured together with PBMCs in the presence of 1 nM CD20-TCB (SEQ ID NOs 4-11, 24-35), and escalating sirolimus doses ranging from 0 nM to 1000 nM (FIG. 13).
as §1, §2, §3, §4, §5

[6] = test system: CD4+ and CD8+ T cells; assay: T cell activation (CD25, CD69 by flow cytometry) in CEA-TCB killing assay; type: cell-based; details: 10 nM CEA-TCB
[7] = test system: MKN45 NucLight Red (NLR) target cells; assay: killing assay with PBMCs, MKN45 NLR target cells and CEA-TCB (Incucyte); type: cell-based; details: inhibitor doses 12.5 nM to 1 μM; 50 000 PBMCs: 5 000 target cells; Incucyte
[8] = test system: A375 NucLight Red (NLR) target-cells; assay: killing assay with PBMCs, A375 NLR target cells and MAGEA4-TCB (Incucyte); type: cell-based; details: 8 nM MAGEA4-TCB; escalating inhibitor concentrations
[9] = test system: SUDLH-8 tumor cells; assay: killing assay with PBMCs, CTV labelled SUDLH-8 tumor cells and CD19-TCB; type: cell-based; details: 24 hrs; 100 nM kinase inhibitors or dexamethasone, 5 μg/mL antibodies
Method: FIG. 64. In vitro killing assay set-up. PBMCs were co-cultured with CellTrace™ Violet (CTV) labelled SUDLH-8 tumor cells (E:T=10:1) in the presence of escalating concentrations of CD19-TCB in media supplemented with the different kinase inhibitors (100 nM) for 24 hrs.
FIG. 69. In vitro killing assay set-up. PBMCs were co-cultured with CTV labelled SUDLH-8 cells (E:T=10:1) in the presence of escalating concentrations of CD19-TCB in media supplemented with the different JAK inhibitors (100 nM) for 24 hrs.
FIG. 73. In vitro killing assay set-up.
PBMCs were co-cultured together with CellTrace™ Violet (CTV) labelled SUDLH-8 tumor cells and escalating concentrations of CD19-TCB in the presence of the different kinase inhibitors, including also the Src inhibitor dasatinib (FIG. 64). At assay endpoint (24 hrs), the killing of CTV labelled SUDLH-8 cells was measured by flow cytometry by exclusion of the dead SUDLH-8 cells with a Live/Dead stain. […] Lastly, the levels of cytokines were measured in the supernatants of the assay to evaluate the effect of mTOR, JAK and Src inhibitors on CD19-TCB-induced cytokine release.
(§6) At assay endpoint (24 hrs), the killing of CTV labelled SUDLH-8 cells was measured by flow cytometry by exclusion of the dead SUDLH-8 cells with a Live/Dead stain. […] Lastly, the levels of cytokines were measured in the supernatants of the assay to assess the effect of the JAK inhibitors on CD19-TCB-induced cytokine release.
as §6, with “stain to evaluate the effect of the different mitigation approaches on CD19-TCB-dependent killing.” for “stain.”, “address” for “assess”

[10] = 66 h, fixed compound concentrations
[11] = 72 h, concentrations above 25 nM, reduced from ~45%

CO[C@H]1C[C@@H]2CC[C@@H](C)[C@@](O)(O2)C(=O)C(=O)N2CCCC[C@H]2C(=O)O[C@H]([C@H](C)C[C@@H]2CC[C@@H](OCCO)[C@H](OC)C2)CC(=O)[C@H](C)/C=C(\C)[C@@H](O)[C@@H](OC)C(=O)[C@H](C)C[C@H](C)/C=C/C=C/C=C/1C [everolimus, Everolimus]
levels of IFN-γ, TNF-α, IL-2, IL-6, MCP-1, IL-8, IL-10, IL-4 and GM-CSF ([1]; assay endpoint 72 h (ruxolitinib 69 h), in comparison to samples without inhibitor): very low | CEA-TCB induced cytokine release ([1]; even at the lowest doses tested): strongly downregulated; also recorded: strongly reduces | CEA-TCB-induced cytokine release [1, 10]: inhibited; also recorded: comparable to dexamethasone and dasatinib | further release of IFN-γ, IL-2, IL-6 ([2]; 1 nM CD20-TCB, three donors): prevented further release | IL-2, IFN-γ, IL-6 and GM-CSF release ([2]; between 18 hours and 44 hours): stopped | release of TNF-α and IL-1β ([2]; between 18 hours and 44 hours): to a lower extent | B cell depletion induced by CD20-TCB (percentage of CD19+ B cells among human CD45+ cells in peripheral blood) [3]: did not interfere; also recorded: minimally interfered | cytokine release induced by CD20-TCB (IFN-γ, IL-2, TNF-α, GM-CSF and IL-6) ([4]; 1 nM CD20-TCB, concentrations above 12.5 nM): strongly reduced | CD20-TCB-induced cytokine release ([4]; escalating CD20-TCB / 1 nM CD20-TCB, fixed compound concentrations): comparable effect to dexamethasone and dasatinib | T cell activation (CD25 and CD69 on CD4+ and CD8+ T cells) [5]: did not fully inhibit | T cell activation triggered by the TCB ([6]; summary statement, also for target cell killing): does not fully inhibit | CD25 and CD69 expression on CD4+ and CD8+ T cells (T cell activation) [6, 10]: milder impact | expression of CD69 on CD8+ T cells ([6]; 72 h): did not affect | expression of CD25 on CD4+ T cells [6, 11]: ~15% | expression of CD69 on CD4+ T cells [6, 11]: ~25% | expression of CD25 on CD8+ T cells ([6]; 72 h, concentrations above 25 nM, reduced from ~75% (everolimus: ~70%)): 40% | MKN45 NLR target cell killing by 10 nM CEA-TCB [7]: only partially reduced | MAGEA4-TCB induced tumor cell killing [8]: did not prevent | CD19-TCB-dependent killing of CTV labelled SUDLH-8 cells [9]: did not prevent
